Reference: ChEMBL document CHEMBL1149031, “New bioactive taxoids from cell cultures of Taxus baccata” (1994)

Assays:
[1] = organism: Bos taurus; assay: Induction of bovine brain tubulin assembly at 1 mg/ml of tubulin concentration
[2] = organism: Bos taurus; assay: Ratio of compound ED50 to taxol ED50 for bovine brain tubulin assembly at 1 mg/ml of tubulin concentration
[3] = organism: Bos taurus; assay: Induction of bovine brain tubulin assembly at 1.5 mg/ml of tubulin concentration
[4] = tested on: HOP-62; assay: Cytotoxicity against human HOP62 cells; assay type: functional
[5] = tested on: NCI-H460; assay: Cytotoxicity against human NCI-H460 cells; assay type: functional
[6] = tested on: DMS-114; assay: Cytotoxicity against human DMS114 cells; assay type: functional; conditions: for CC50: read-out: LC50 (the source's name)
[7] = tested on: COLO 205; assay: Cytotoxicity against human COLO205 cells; assay type: functional; conditions: for CC50: read-out: LC50 (the source's name)
[8] = tested on: SF-539; assay: Cytotoxicity against human SF539 cells; assay type: functional
[9] = tested on: SNB-75; assay: Cytotoxicity against human SNB75 cells; assay type: functional; conditions: for CC50: read-out: LC50 (the source's name)
[10] = tested on: OVCAR-3; assay: Cytotoxicity against human OVCAR-3 cells; assay type: functional
[11] = organism: Bos taurus; assay: Ratio of compound ED50 to taxol ED50 for bovine brain tubulin assembly at 1.5 mg/ml of tubulin concentration

Ratio ED50 [2] | Compound | ED50 [1] [nM] | ED50 [3] [nM] | GI50 [4] [nM] | TGI [4] [nM] | GI50 [5] [nM] | TGI [5] [nM] | GI50 [6] [nM] | TGI [6] [nM] | CC50 [6] [nM] | GI50 [7] [nM] | TGI [7] [nM] | CC50 [7] [nM] | GI50 [8] [nM] | TGI [8] [nM] | GI50 [9] [nM] | TGI [9] [nM] | CC50 [9] [nM] | GI50 [10] [nM] | TGI [10] [nM] | also measured
2.04 | CCCC(=O)N[C@@H](c1ccccc1)[C@@H](O)C(=O)O[C@H]1C[C@@]2(O)[C@@H](OC(=O)c3ccccc3)[C@@H]3[C@]4(OC(C)=O)CO[C@@H]4C[C@H](O)[C@@]3(C)C(=O)[C@H](OC(C)=O)C(=C1C)C2(C)C | 2350 |  |  |  |  |  |  |  |  |  |  |  |  |  |  |  |  |  |  | 
2.57 | CCCCCC(=O)N[C@@H](c1ccccc1)[C@@H](O)C(=O)O[C@H]1C[C@@]2(O)[C@@H](OC(=O)c3ccccc3)[C@@H]3[C@]4(OC(C)=O)CO[C@@H]4C[C@H](O)[C@@]3(C)C(=O)[C@H](O)C(=C1C)C2(C)C | 2960 |  |  |  |  |  |  |  |  |  |  |  |  |  |  |  |  |  |  | 
1.66 | CCCCCC(=O)N(C)[C@@H](c1ccccc1)[C@@H](O)C(=O)O[C@H]1C[C@@]2(O)[C@@H](OC(=O)c3ccccc3)[C@@H]3[C@]4(OC(C)=O)CO[C@@H]4C[C@H](O)[C@@]3(C)C(=O)[C@H](OC(C)=O)C(=C1C)C2(C)C | 1910 |  |  |  |  |  |  |  |  |  |  |  |  |  |  |  |  |  |  | 

Continued, compound first:

Compound | Ratio ED50 [2] | ED50 [1] [nM] | ED50 [3] [nM] | GI50 [4] [nM] | TGI [4] [nM] | GI50 [5] [nM] | TGI [5] [nM] | GI50 [6] [nM] | TGI [6] [nM] | CC50 [6] [nM] | GI50 [7] [nM] | TGI [7] [nM] | CC50 [7] [nM] | GI50 [8] [nM] | TGI [8] [nM] | GI50 [9] [nM] | TGI [9] [nM] | CC50 [9] [nM] | GI50 [10] [nM] | TGI [10] [nM] | also measured
CC(=O)O[C@H]1C(=O)[C@@]2(C)[C@H]([C@H](OC(=O)c3ccccc3)[C@]3(O)C[C@H](OC(=O)[C@H](O)[C@@H](NC(=O)c4ccccc4)c4ccccc4)C(C)=C1C3(C)C)[C@]1(OC(C)=O)CO[C@@H]1C[C@@H]2O [PACLITAXEL] |  | 950 | 760 | 67.1 | > 1000 | 21.9 | > 1000 | 12.3 | 61.2 | > 1000 | 1.76 | 43.2 | 145 | 3.66 | 89.9 | 8.08 | 77.3 | > 1000 | 19.7 | 48.7 | CC50 ([8]; read-out: LC50 (the source's name)): > 25000 nM
CCCCCC(=O)N[C@@H](c1ccccc1)[C@@H](O)C(=O)O[C@H]1C[C@@]2(O)[C@@H](OC(=O)c3ccccc3)[C@@H]3[C@]4(OC(C)=O)CO[C@@H]4C[C@H](O)[C@@]3(C)C(=O)[C@H](OC(C)=O)C(=C1C)C2(C)C [TAXOL C] | 1.05 | 1000 | 1400 | < 10 | 12.1 | < 10 | 349 | < 10 | 23.8 | 21700 | < 10 | 22.9 | 23300 | < 10 | < 10 | < 10 | 19.2 | > 100000 | < 10 | < 10 | Ratio ED50 [11]: 1.82; LC50 (concentration killing 50% of cells) [4]: 32000 nM; LC50 [5]: 69800 nM; LC50 [10]: > 100000 nM
C/C=C(\C)C(=O)N[C@@H](c1ccccc1)[C@@H](O)C(=O)O[C@H]1C[C@@]2(O)[C@@H](OC(=O)c3ccccc3)[C@@H]3[C@]4(OC(C)=O)CO[C@@H]4C[C@H](O)[C@@]3(C)C(=O)[C@H](OC(C)=O)C(=C1C)C2(C)C | 1.05 | 850 | 950 |  |  |  |  |  |  |  |  |  |  |  |  |  |  |  |  |  | Ratio ED50 [11]: 1.11
